# Assay results taken from patent publication US9493461B2, “Tetracyclic heterocycle compounds and methods of use thereof for the treatment of hepatitis C” (priority 2013, dated 2016).
# Key:
# HCV replicon genotype 1a = assay: HCV replicon assay, genotype 1a (cell ELISA for replicon-encoded NS3/4A); type: cell-based, hepatitis C virus (HCV); details: Hepatitis C virus, 96 h, read-out: 1a IC50 (nM), genotype 1a replicon cells, 96 hours incubation, NS3/4A ELISA readout, % of DMSO control
# Outline: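 Stable G418-selected neomycin-resistant HCV replicon cells were plated with serially diluted compound without G418 and incubated 96 h. After washing and lysis, replicon RNA was measured indirectly by cell ELISA for replicon-encoded NS3/4A; IC50 from four-parameter fit relative to DMSO control.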
# HCV replicon genotype 1b = assay: HCV replicon assay, genotype 1b (cell ELISA for replicon-encoded NS3/4A); type: cell-based, hepatitis C virus (HCV); details: Hepatitis C virus, 96 h, read-out: 1b IC50 (nM), genotype 1b replicon cells, 96 hours incubation, NS3/4A ELISA readout, % of DMSO control
# Outline: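 Genotype 1b replicon cells (neomycin-selected, G418 removed for assay) incubated 96 h with compound dilution series. Replication measured by cell ELISA for replicon-encoded NS3/4A after lysis; IC50 from four-parameter fit relative to DMSO control.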
Compound,IC50 (HCV replicon genotype 1a),IC50 (HCV replicon genotype 1b)
CNC(=O)c1c(-c2ccc(F)cc2)oc2cc(N(C)S(C)(=O)=O)c(-c3ccc4nc(CN5CC6CC5CO6)n5c6cccc(F)c6cc5c4n3)cc12 (centres unmarked) [Example 109],8.1 nM,11.2 nM
CNC(=O)c1c(-c2ccc(F)cc2F)oc2cc(N(C)S(C)(=O)=O)c(-c3ccc4nc(CN5CCC(F)(C#N)CC5)n5c6cccc(F)c6cc5c4n3)cc12 [Example 141],5.48 nM,5.99 nM
CNC(=O)c1c(-c2ccc(F)cc2)oc2cc(N(C)S(C)(=O)=O)c(-c3ccc4nc(CN5CC(C)(C#N)C5)n5c6cccc(C#N)c6cc5c4n3)cc12 [Example 130],1.22 nM,1.39 nM
CNC(=O)c1c(-c2ccc(F)cc2)oc2cc(N(C)S(C)(=O)=O)c(-c3ccc4nc(CC5CC[C@H](OC)C5)n5c6cccc(C#N)c6cc5c4n3)cc12 (some centres unmarked) [Example 132],2.83 nM,3.5 nM
CNC(=O)c1c(-c2ccc(F)cc2)oc2cc(N(C)S(C)(=O)=O)c(-c3cc4c(cn3)nc(CN3CCC(F)(F)C3)n3c5cccc(F)c5cc43)cc12 [Example 117],3.49 nM,5.01 nM
"CNC(=O)c1c(-c2ccc(F)cc2)oc2cc(N(C)S(C)(=O)=O)c(-c3ccc4[nH]c(=O)n5c6ccc(F)cc6cc5c4n3)cc12 [Example 21, 5-(10-fluoro-6-oxo-5,6-dihydropyrido[3′,2′:4,5]pyrimido[1,6-a]indol-2-yl)-2-(4-fluorophenyl)-N-methyl-6-(N-methylmethylsulfonamido)benzofuran-3-carboxamide]",7.61 nM,8.74 nM
CNC(=O)c1c(C(=O)N2CC(F)(F)C2)oc2cc(N(C)S(C)(=O)=O)c(-c3ccc4ncn5c6cccc(F)c6cc5c4n3)cc12 [Example 51],39.1 nM,32 nM
"CNC(=O)c1c(-c2ccc(F)cc2F)oc2cc(N(C)S(C)(=O)=O)c(-c3ccc4nc(CN5CC[C@@H](F)C5)n5c6cccc(F)c6cc5c4n3)cc12 [Example 44, (R)-2-(2,4-difluorophenyl)-5-(11-fluoro-6-((3-fluoropyrrolidin-1-yl)methyl)pyrido[3′,2′:4,5]pyrimido[1,6-a]indol-2-yl)-N-methyl-6-(N-methylmethylsulfonamido)benzofuran-3-carboxamide]",3.22 nM,3.45 nM
"CNC(=O)c1c(-c2ccc(F)cc2)oc2cc(N(C)S(C)(=O)=O)c(-c3ccc4nc(C)n5c6cccc(F)c6cc5c4n3)cc12 [Example 60, 5-(11-fluoro-6-methylpyrido[3′,2′:4,5]pyrimido[1,6-a]indol-2-yl)-2-(4-fluorophenyl)-N-methyl-6-(N-methylmethylsulfonamido)benzofuran-3-carboxamide]",2.78 nM,2.77 nM
CNC(=O)c1c(-c2ccc(F)cc2F)oc2cc(N(C)S(C)(=O)=O)c(-c3ccc4nc(CN5CC(C(C)(C)O)C5)n5c6cccc(F)c6cc5c4n3)cc12 [Example 143],5.17 nM,6.21 nM
CNC(=O)c1c(-c2ccc(F)cc2F)oc2cc(N(C)S(C)(=O)=O)c(-c3ccc4nc(CN5CC(C)(O)C5)n5c6cccc(F)c6cc5c4n3)cc12 [Example 142],3.05 nM,2.85 nM
"CNC(=O)c1c(-c2ccc(F)cc2F)oc2cc(N(C)S(C)(=O)=O)c(-c3ccc4ncn5c6cccc(F)c6cc5c4n3)cc12 [Example 9, 2-(2,4-difluorophenyl)-5-(11-fluoropyrido[3′,2′:4,5]pyrimido[1,6-a]indol-2-yl)-N-methyl-6-(N-methylmethylsulfonamido)benzofuran-3-carboxamide]",1.16 nM,1.99 nM
"CNC(=O)c1c(-c2ccc(F)cc2)oc2cc(N(C)S(C)(=O)=O)c(-c3ccc4nc(N)n5c6cccc(F)c6cc5c4n3)cc12 [Example 25, 5-(6-amino-11-fluoropyrido[3′,2′:4,5]pyrimido[1,6-a]indol-2-yl)-2-(4-fluorophenyl)-N-methyl-6-(N-methylmethylsulfonamido)benzofuran-3-carboxamide]",245 nM,145 nM
CNC(=O)c1c(-c2ccc(F)cc2)oc2cc(N(C)S(C)(=O)=O)c(-c3ccc4nc(CN5CCC5(C)C)n5c6cccc(F)c6cc5c4n3)cc12 [Example 99],3.32 nM,5.76 nM
CNC(=O)c1c(-c2ccc(F)cc2F)oc2cc(N(C)S(C)(=O)=O)c(-c3ccc4nc(CN5CC(F)C5)n5c6cccc(F)c6cc5c4n3)cc12 [Example 37],5.26 nM,7.26 nM
"CNC(=O)c1c(-c2ccc(F)cc2)oc2cc(N(C)S(C)(=O)=O)c(-c3cc4c(cn3)ncn3c5cccc(F)c5cc43)cc12 [Example 74, 2-(4-fluorophenyl)-5-(11-fluoropyrido[3′,4′:4,5]pyrimido[1,6-a]indol-2-yl)-N-methyl-6-(N-methylmethylsulfonamido)benzofuran-3-carboxamide]",1.21 nM,3.07 nM
"CNC(=O)c1c(-c2ccc(F)cc2)oc2cc(N(C)S(C)(=O)=O)c(-c3ccc4c(n3)-c3cc5c(F)cccc5n3C(CC(=O)O)N4)cc12 (centres unmarked) [Example 72, 2-(11-fluoro-2-(2-(4-fluorophenyl)-3-(methylcarbamoyl)-6-(N-methylmethylsulfonamido)benzofuran-5-yl)-5,6-dihydropyrido[3′,2′:4,5]pyrimido[1,6-a]indol-6-yl)acetic acid]",22.8 nM,15.6 nM
CNC(=O)c1c(-c2ccc(F)cc2)oc2cc(N(C)S(C)(=O)=O)c(-c3ccc4nc(CN5CC(S(C)(=O)=O)C5)n5c6cccc(F)c6cc5c4n3)cc12 [Example 107],3.33 nM,3.04 nM
"CNC(=O)c1c(-c2ccc(F)cc2)oc2cc(N(C)S(C)(=O)=O)c(-c3ccc4ncn5c6cccc(F)c6cc5c4n3)cc12 [Example 10, 2-(4-fluorophenyl)-5-(11-fluoropyrido[3′,2′:4,5]pyrimido[1,6-a]indol-2-yl)-N-methyl-6-(N-methylmethylsulfonamido)benzofuran-3-carboxamide]",2.01 nM,3.24 nM
